Data from PubChem BioAssay (NCI).
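Method: 48-hour compound exposure of cells in 96-well plates, five concentrations, linear interpolation of endpoints. GI50: concentration for 50% inhibition of growth. At the TGI there is no net growth.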

What was measured:
Test in all cases: inhibition of tumour cell growth, NCI panel, 48 h
LOX IMVI melanoma = system: LOX IMVI melanoma
MALME-3M melanoma = system: MALME-3M melanoma
SNB-75 CNS = system: SNB-75 CNS
SF-295 CNS = system: SF-295 CNS
NCI-H226 lung = system: NCI-H226 lung
MDA-MB-435 = system: MDA-MB-435
OVCAR-3 ovarian = system: OVCAR-3 ovarian
SW-620 colon = system: SW-620 colon
SK-MEL-5 melanoma = system: SK-MEL-5 melanoma
K-562 leukemia = system: K-562 leukemia
MOLT-4 leukemia = system: MOLT-4 leukemia
A498 renal = system: A498 renal
UO-31 renal = system: UO-31 renal
T-47D breast = system: T-47D breast
SN12C renal = system: SN12C renal
SNB-19 CNS = system: SNB-19 CNS
RPMI-8226 leukemia = system: RPMI-8226 leukemia
COLO 205 colon = system: COLO 205 colon
U251 CNS = system: U251 CNS
OVCAR-4 ovarian = system: OVCAR-4 ovarian
PC-3 prostate = system: PC-3 prostate
CAKI-1 renal = system: CAKI-1 renal
SF-268 CNS = system: SF-268 CNS
SK-OV-3 ovarian = system: SK-OV-3 ovarian
HT29 colon = system: HT29 colon
RXF 393 renal = system: RXF 393 renal
DU-145 prostate = system: DU-145 prostate
NCI-H460 lung = system: NCI-H460 lung
OVCAR-5 ovarian = system: OVCAR-5 ovarian
MDA-MB-231 breast = system: MDA-MB-231 breast
CCRF-CEM leukemia = system: CCRF-CEM leukemia
NCI-H522 lung = system: NCI-H522 lung
OVCAR-8 ovarian = system: OVCAR-8 ovarian
ACHN renal = system: ACHN renal
HCT-116 colon = system: HCT-116 colon
SK-MEL-2 melanoma = system: SK-MEL-2 melanoma
HCT-15 colon = system: HCT-15 colon
HS 578T breast = system: HS 578T breast
IGROV1 ovarian = system: IGROV1 ovarian
HOP-62 NSCLC = system: HOP-62 NSCLC
HL-60(TB) leukemia = system: HL-60(TB) leukemia
SR leukemia = system: SR leukemia
UACC-257 melanoma = system: UACC-257 melanoma
HOP-92 NSCLC = system: HOP-92 NSCLC
SK-MEL-28 melanoma = system: SK-MEL-28 melanoma
BT-549 breast = system: BT-549 breast
UACC-62 melanoma = system: UACC-62 melanoma
SF-539 CNS = system: SF-539 CNS
TK-10 renal = system: TK-10 renal
EKVX NSCLC = system: EKVX NSCLC
HCC-2998 colon = system: HCC-2998 colon
MCF7 breast = system: MCF7 breast
KM12 colon = system: KM12 colon
NCI-H23 lung = system: NCI-H23 lung
A549 NSCLC = system: A549 NSCLC
NCI/ADR-RES ovarian = system: NCI/ADR-RES ovarian
786-0 renal = system: 786-0 renal

## CCN(CC)S(=O)(=O)c1ccc(-c2nc(C(Cl)Cl)nc3cc(-c4ccc(F)cc4)nn23)cc1
LOX IMVI melanoma
  GI50: 6.37 µM
  TGI: > 100 µM
MALME-3M melanoma
  GI50: > 100 µM
  TGI: > 100 µM
SNB-75 CNS
  GI50: 11.7 µM
  TGI: > 100 µM
SF-295 CNS
  GI50: 2.29 µM
  TGI: 12.8 µM
NCI-H226 lung
  GI50: 3.77 µM
  TGI: > 100 µM
MDA-MB-435
  GI50: 3.02 µM
  TGI: > 100 µM
OVCAR-3 ovarian
  GI50: 1.15 µM
  TGI: 2.87 µM
SW-620 colon
  GI50: 1.41 µM
  TGI: > 100 µM
SK-MEL-5 melanoma
  GI50: > 100 µM
  TGI: > 100 µM
K-562 leukemia
  GI50: 1.83 µM
  TGI: > 100 µM
MOLT-4 leukemia
  GI50: 8.19 µM
  TGI: > 100 µM
A498 renal
  GI50: 1.33 µM
  TGI: 4.7 µM
UO-31 renal
  GI50: 2.27 µM
  TGI: 8.99 µM
T-47D breast
  GI50: 2.94 µM
  TGI: > 100 µM
SN12C renal
  GI50: 15.7 µM
  TGI: > 100 µM
SNB-19 CNS
  GI50: 3.7 µM
  TGI: > 100 µM
RPMI-8226 leukemia
  GI50: 0.733 µM
  TGI: 3.79 µM
COLO 205 colon
  GI50: 2.02 µM
  TGI: 6.16 µM
U251 CNS
  GI50: 2.21 µM
  TGI: 14.4 µM
OVCAR-4 ovarian
  GI50: 3.71 µM
  TGI: > 100 µM
PC-3 prostate
  GI50: 2.61 µM
  TGI: 18.6 µM
CAKI-1 renal
  GI50: 2.38 µM
  TGI: 13.3 µM
SF-268 CNS
  GI50: 5.14 µM
  TGI: > 100 µM
SK-OV-3 ovarian
  GI50: 4.09 µM
  TGI: > 100 µM
HT29 colon
  GI50: 1.55 µM
  TGI: 4.77 µM
RXF 393 renal
  GI50: 1.54 µM
  TGI: 3.41 µM
DU-145 prostate
  GI50: 1.34 µM
  TGI: 2.98 µM
NCI-H460 lung
  GI50: 0.923 µM
  TGI: 3.07 µM
OVCAR-5 ovarian
  GI50: 3.04 µM
  TGI: > 100 µM
MDA-MB-231 breast
  GI50: 2.01 µM
  TGI: 7.27 µM
CCRF-CEM leukemia
  GI50: > 100 µM
  TGI: > 100 µM
NCI-H522 lung
  GI50: > 100 µM
  TGI: > 100 µM
OVCAR-8 ovarian
  GI50: 3.94 µM
  TGI: > 100 µM
ACHN renal
  GI50: 1.16 µM
  TGI: 3.57 µM
HCT-116 colon
  GI50: 1.73 µM
  TGI: > 100 µM
SK-MEL-2 melanoma
  GI50: > 100 µM
  TGI: > 100 µM
HCT-15 colon
  GI50: 1.32 µM
  TGI: > 100 µM
HS 578T breast
  GI50: 3.56 µM
  TGI: 93.2 µM
IGROV1 ovarian
  GI50: 3.38 µM
  TGI: > 100 µM
HOP-62 NSCLC
  GI50: 3.21 µM
  TGI: > 100 µM
HL-60(TB) leukemia
  GI50: 1.58 µM
  TGI: 6.65 µM
SR leukemia
  GI50: 2.69 µM
  TGI: > 100 µM
UACC-257 melanoma
  GI50: 5.51 µM
  TGI: > 100 µM
HOP-92 NSCLC
  GI50: 2 µM
  TGI: 5.47 µM
SK-MEL-28 melanoma
  GI50: 2.73 µM
  TGI: 10.8 µM
BT-549 breast
  GI50: 18.5 µM
  TGI: > 100 µM
UACC-62 melanoma
  GI50: 4.03 µM
  TGI: > 100 µM
SF-539 CNS
  GI50: 2.24 µM
  TGI: 8.88 µM
TK-10 renal
  GI50: 2.99 µM
  TGI: 8.72 µM
EKVX NSCLC
  GI50: 2.28 µM
  TGI: 6.57 µM
HCC-2998 colon
  GI50: 1.89 µM
  TGI: 4.15 µM
MCF7 breast
  GI50: 2.66 µM
  TGI: > 100 µM
KM12 colon
  GI50: 1.89 µM
  TGI: 9.43 µM
NCI-H23 lung
  GI50: 2.49 µM
  TGI: 20.6 µM
A549 NSCLC
  GI50: 2.52 µM
  TGI: 10.1 µM
NCI/ADR-RES ovarian
  GI50: 2.24 µM
  TGI: > 100 µM
786-0 renal
  GI50: 5.37 µM
  TGI: > 100 µM
